Patent US20230220021A1, “CYCLIC PEPTIDE INHIBITORS OF PSD-95 AND USES THEREOF” (University of Copenhagen, priority 2020, published 2023)
Where a SMILES comes first, the peptide text is derived from it. [ ]: non-standard residue; d: D form.

Each molecule was assayed against T1, PSD-95-PDZ2 (Homo sapiens, UniProt P78352) (assay: Fluorescence polarization (FP) competition assay against cyclic nNOS TAMRA probe). Settings: FP competition, N-methylation.
T1 construct: 7xHis (N); made in house; host or cells: Escherichia coli B21 pLys (for the mutants, 'as previously described')
T1 sequence (P78352 160-246 limits assumed): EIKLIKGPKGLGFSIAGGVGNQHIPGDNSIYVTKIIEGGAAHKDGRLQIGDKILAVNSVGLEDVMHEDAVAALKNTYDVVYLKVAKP
Assay type: binding

Molecule | fold improved binding affinity
CC[C@H](C)[C@@H]1NC(=O)[C@H]([C@@H](C)O)NC(=O)[C@H](CCCCN)NC(=O)[C@@H]2CCCN2C(=O)[C@H]([C@@H](C)O)NC(=O)CNC(=O)[C@H](CC(=O)O)NC(=O)CNC(=O)[C@H]([C@@H](C)O)NC(=O)[C@H](Cc2ccccc2)NC(=O)[C@H]([C@@H](C)O)NC(=O)[C@H]([C@@H](C)O)NC(=O)[C@H](CCC(=O)O)NC(=O)[C@H](CC(C)C)NC(=O)[C@H](Cc2c[nH]cn2)NC(=O)[C@H]([C@@H](C)O)NC(=O)[C@H](CCC(N)=O)NC(=O)CNC(=O)[C@H]2CCCN2C(=O)[C@H](CCC(N)=O)NC(=O)[C@H]([C@@H](C)O)N(C)C(=O)[C@H](C(C)C)NC(=O)[C@H](CCCNC(=N)N)NC1=O [SEQ ID NO: 101] | 2 fold

Same assay, conditions: FP competition, cyclic nNOS TAMRA probe; mean of triplicates; N.B. = not binding

Molecule | Ki
104 (THLEXTFTGDGTPKTIRVTQPGQ; cyclized peptide; (5)..(5) X is pT; (21)..(21) is D-AA) [compound 104] | N.B.
85 (TXLETTFTGDGTPKTIRVTQPGQ; cyclized peptide; (2)..(2) X is N-Me-H; (21)..(21) is D-AA) [compound 85] | N.B.

Same assay, conditions: FP competition, cyclic nNOS TAMRA probe; mean of triplicates; N.B. = not binding; read-out: Ki

Molecule | Ki
CC(C)C[C@@H]1NC(=O)[C@H](Cc2c[nH]cn2)NC(=O)[C@H]([C@@H](C)O)NC(=O)[C@H](CCC(N)=O)NC(=O)CNC(=O)[C@H]2CCCN2C(=O)[C@H](CCC(N)=O)NC(=O)[C@H]([C@@H](C)O)NC(=O)[C@H](C(C)C)NC(=O)[C@H](CCCNC(=N)N)NC(=O)[C@H](CCCNC(=N)N)NC(=O)[C@H]([C@@H](C)O)NC(=O)[C@H](CCCCN)NC(=O)[C@@H]2CCCN2C(=O)[C@H]([C@@H](C)O)NC(=O)CNC(=O)[C@H](CC(=O)O)NC(=O)CNC(=O)[C@H]([C@@H](C)O)NC(=O)[C@H](Cc2ccccc2)NC(=O)[C@H]([C@@H](C)O)NC(=O)[C@H]([C@@H](C)O)NC(=O)[C@H](CCC(=O)O)NC1=O [compound 41] (cyclo(THLETTFTGDGTPKTRRVTQ[dP]GQ)) | 1760 nM
CC[C@H](C)[C@@H]1NC(=O)[C@H]([C@@H](C)O)NC(=O)[C@H](CCCCN)NC(=O)[C@@H]2CCCN2C(=O)[C@@H]([C@H](C)O)NC(=O)CNC(=O)[C@H](CC(=O)O)NC(=O)CNC(=O)[C@H]([C@@H](C)O)NC(=O)[C@H](Cc2ccccc2)NC(=O)[C@H]([C@@H](C)O)NC(=O)[C@H]([C@@H](C)O)NC(=O)[C@H](CCC(=O)O)NC(=O)[C@H](CC(C)C)NC(=O)[C@H](Cc2c[nH]cn2)NC(=O)[C@H]([C@@H](C)O)NC(=O)[C@H](CCC(N)=O)NC(=O)CNC(=O)[C@H]2CCCN2C(=O)[C@H](CCC(N)=O)NC(=O)[C@H]([C@@H](C)O)NC(=O)[C@H](C(C)C)NC(=O)[C@H](CCCNC(=N)N)NC1=O [compound 121] | 2000 nM
CC[C@H](C)[C@@H]1NC(=O)[C@H]([C@@H](C)O)NC(=O)[C@H](CCCCN)NC(=O)[C@@H]2CCCN2C(=O)[C@H]([C@@H](C)O)NC(=O)CNC(=O)[C@H](CC(=O)O)NC(=O)CNC(=O)[C@H]([C@@H](C)O)NC(=O)[C@H](Cc2ccccc2)NC(=O)[C@H]([C@@H](C)O)NC(=O)[C@H]([C@@H](C)O)NC(=O)[C@H](CCC(=O)O)NC(=O)[C@H](CC(C)C)NC(=O)[C@H](Cc2c[nH]cn2)NC(=O)[C@H]([C@@H](C)O)NC(=O)[C@H](CCC(N)=O)NC(=O)CNC(=O)[C@H]2CCCN2C(=O)[C@H](CCC(N)=O)NC(=O)[C@H]([C@@H](C)O)N(C)C(=O)[C@H](C(C)C)NC(=O)[C@H](CCCNC(=N)N)NC1=O [SEQ ID NO: 101] | 600 ± 100 nM
CC[C@H](C)[C@@H]1NC(=O)[C@H]([C@@H](C)O)NC(=O)[C@H](CCCCN)NC(=O)[C@@H]2CCCN2C(=O)[C@H]([C@@H](C)O)NC(=O)CNC(=O)[C@@H](CC(=O)O)NC(=O)CNC(=O)[C@H]([C@@H](C)O)NC(=O)[C@H](Cc2ccccc2)NC(=O)[C@H]([C@@H](C)O)NC(=O)[C@H]([C@@H](C)O)NC(=O)[C@H](CCC(=O)O)NC(=O)[C@H](CC(C)C)NC(=O)[C@H](Cc2c[nH]cn2)NC(=O)[C@H]([C@@H](C)O)NC(=O)[C@H](CCC(N)=O)NC(=O)CNC(=O)[C@H]2CCCN2C(=O)[C@H](CCC(N)=O)NC(=O)[C@H]([C@@H](C)O)NC(=O)[C@H](C(C)C)NC(=O)[C@H](CCCNC(=N)N)NC1=O [compound 120] | 590 nM

Same assay, conditions: FP inhibition constant normalized to WT value

Molecule | Relative Ki (Ki mut/Ki WT)
CC[C@H](C)[C@@H]1NC(=O)[C@H]([C@@H](C)O)NC(=O)[C@H](CCCCN)NC(=O)[C@@H]2CCCN2C(=O)[C@H](CC(N)=O)NC(=O)CNC(=O)[C@H](CC(=O)O)NC(=O)CNC(=O)[C@H]([C@@H](C)O)NC(=O)[C@H](Cc2ccccc2)NC(=O)[C@H]([C@@H](C)O)NC(=O)[C@H]([C@@H](C)O)NC(=O)[C@H](CCC(=O)O)NC(=O)[C@H](CC(C)C)NC(=O)[C@H](Cc2c[nH]cn2)NC(=O)[C@H]([C@@H](C)O)NC(=O)[C@H](CCC(N)=O)NC(=O)CNC(=O)[C@H]2CCCN2C(=O)[C@H](CCC(N)=O)NC(=O)[C@H]([C@@H](C)O)NC(=O)[C@H](C(C)C)NC(=O)[C@H](CCCNC(=N)N)NC1=O [compound 40] (cyclo(THLETTFTGDGNPKTIRVTQ[dP]GQ)) | 0.34
CC[C@H](C)[C@@H]1NC(=O)[C@H]([C@@H](C)O)NC(=O)[C@H](CCCCN)NC(=O)[C@@H]2CCCN2C(=O)[C@H]([C@@H](C)O)NC(=O)CNC(=O)[C@H](CC(=O)O)NC(=O)CNC(=O)[C@H]([C@@H](C)O)NC(=O)[C@H](Cc2ccccc2)NC(=O)[C@H]([C@@H](C)O)NC(=O)[C@H]([C@@H](C)O)NC(=O)[C@H](CCC(=O)O)NC(=O)[C@H](CC(C)C)NC(=O)[C@H](Cc2c[nH]cn2)NC(=O)[C@H]([C@@H](C)O)NC(=O)[C@H](CCC(N)=O)NC(=O)CNC(=O)[C@H]2CCCN2C(=O)[C@H](CCC(N)=O)NC(=O)[C@H](Cc2ccc(O)cc2)NC(=O)[C@H](C(C)C)NC(=O)[C@H](CCCNC(=N)N)NC1=O [compound 49] (cyclo(THLETTFTGDGTPKTIRVYQ[dP]GQ)) | 1.25
CC[C@H](C)[C@@H]1NC(=O)[C@H]([C@@H](C)O)NC(=O)[C@H](CCCCN)NC(=O)[C@@H]2CCCN2C(=O)[C@H]([C@@H](C)O)NC(=O)CNC(=O)[C@H](CC(=O)O)NC(=O)CNC(=O)[C@H]([C@@H](C)O)NC(=O)[C@H](Cc2ccccc2)NC(=O)[C@H]([C@@H](C)O)NC(=O)[C@H]([C@@H](C)O)NC(=O)[C@H](CCC(=O)O)NC(=O)[C@H](CC(C)C)NC(=O)[C@H](Cc2c[nH]cn2)NC(=O)CNC(=O)[C@H](CCC(N)=O)NC(=O)CNC(=O)[C@H]2CCCN2C(=O)[C@H](CCC(N)=O)NC(=O)[C@H]([C@@H](C)O)NC(=O)[C@H](C(C)C)NC(=O)[C@H](CCCNC(=N)N)NC1=O [compound 25] (cyclo(GHLETTFTGDGTPKTIRVTQ[dP]GQ)) | 3.00
CC(C)C[C@@H]1NC(=O)[C@H](Cc2c[nH]cn2)NC(=O)[C@H]([C@@H](C)O)NC(=O)[C@H](CCC(N)=O)NC(=O)CNC(=O)[C@H]2CCCN2C(=O)[C@H](CCC(N)=O)NC(=O)[C@H]([C@@H](C)O)NC(=O)[C@H](C(C)C)NC(=O)[C@H](CCCNC(=N)N)NC(=O)[C@H](CCCNC(=N)N)NC(=O)[C@H]([C@@H](C)O)NC(=O)[C@H](CCCCN)NC(=O)[C@@H]2CCCN2C(=O)[C@H]([C@@H](C)O)NC(=O)CNC(=O)[C@H](CC(=O)O)NC(=O)CNC(=O)[C@H]([C@@H](C)O)NC(=O)[C@H](Cc2ccccc2)NC(=O)[C@H]([C@@H](C)O)NC(=O)[C@H]([C@@H](C)O)NC(=O)[C@H](CCC(=O)O)NC1=O [compound 41] (cyclo(THLETTFTGDGTPKTRRVTQ[dP]GQ)) | 1.17
CC[C@H](C)[C@@H]1NC(=O)[C@H]([C@@H](C)O)NC(=O)[C@H](CCCCN)NC(=O)[C@@H]2CCCN2C(=O)[C@H]([C@@H](C)O)NC(=O)CNC(=O)[C@H](CC(=O)O)NC(=O)CNC(=O)[C@H]([C@@H](C)O)NC(=O)[C@H](Cc2ccccc2)NC(=O)[C@H]([C@@H](C)O)NC(=O)[C@H]([C@@H](C)O)NC(=O)[C@H](CCC(=O)O)NC(=O)[C@H](CC(C)C)NC(=O)[C@H](Cc2c[nH]cn2)NC(=O)[C@H]([C@@H](C)O)NC(=O)[C@H](CCC(N)=O)NC(=O)CNC(=O)[C@H]2CCCN2C(=O)[C@H](CCC(N)=O)NC(=O)[C@H]([C@@H](C)O)NC(=O)[C@H](Cc2ccccc2)NC(=O)[C@H](CCCNC(=N)N)NC1=O [compound 46] (cyclo(THLETTFTGDGTPKTIRFTQ[dP]GQ)) | 0.89
CC[C@H](C)[C@@H]1NC(=O)[C@H]([C@@H](C)O)NC(=O)[C@H](CCCCN)NC(=O)[C@@H]2CCCN2C(=O)[C@H]([C@@H](C)O)NC(=O)CNC(=O)[C@H](CC(=O)O)NC(=O)CNC(=O)[C@H]([C@@H](C)O)NC(=O)[C@H](Cc2ccccc2)NC(=O)[C@H]([C@@H](C)O)NC(=O)[C@H]([C@@H](C)O)NC(=O)[C@H](CCC(=O)O)NC(=O)[C@H](CC(C)C)NC(=O)[C@H](Cc2ccc(O)cc2)NC(=O)[C@H]([C@@H](C)O)NC(=O)[C@H](CCC(N)=O)NC(=O)CNC(=O)[C@H]2CCCN2C(=O)[C@H](CCC(N)=O)NC(=O)[C@H]([C@@H](C)O)NC(=O)[C@H](C(C)C)NC(=O)[C@H](CCCNC(=N)N)NC1=O [compound 26] (cyclo(TYLETTFTGDGTPKTIRVTQ[dP]GQ)) | 0.79
